Test results published in PMC8172068 (PLoS ONE, 2021).
“Also recorded” adds a separate entry of the source. Where a name gives a salt, the structure may show the parent alone.

Target: T1, Acinetobacter baumannii rAcpA (Acinetobacter baumannii, UniProt A0ABX6CG12)
Assay: not given
Format: biochemical
Settings: pH 6

| Molecule | PNPP hydrolysis as percent of that observed for NiCl2 [%] |
| --- | --- |
| CoCl2 | 76 |

Same assay, conditions: pH 6.0, divalent cation 2 mM final concentration

| Molecule | PNPP hydrolysis as percent of that observed for NiCl2 |
| --- | --- |
| [Cl-].[Cl-].[Zn+2] [ZnCl2] | 11% |
| [Cl-].[Cl-].[Mg+2] [MgCl2] | 85% |
| mercury | very inhibitory |
| [Cl][Ni][Cl] [NiCl2] | Maximum hydrolysis |
| [Cl][Mn][Cl] [MnCl2] | 50% |

Target: T1, Acinetobacter baumannii rAcpA
Assay: Hydrolysis of various phosphorylated compounds by rAcpA (released phosphate)
Format: biochemical
Settings: phosphate released relative to paranitrophenol released from PNPP x100; compound at 0.1 mM final concentration
Protocol: All incubations were carried out for 30 minutes at 37 °C after which time reactions were placed in an ice slurry for 3 minutes followed by addition of enzyme to the respective blanks and reactions were terminated by heating at 65 °C for 10 minutes followed by immersion in an ice slurry for 3 minutes. Released phosphate was determined by addition of 1.0 mL BIOMOL GREEN phosphate reagent (Enzo Life Sciences), and monitored at 620 nm using a Genesys 10 UV Scanning Spectrophotometer (Thermo Scientific). Paranitrophenol was monitored at 405 nm following addition of 1.7 mL 0.5 M Glycine buffer, pH 10. Following subtraction of blank values, paranitrophenol and released phosphate were quantitated using paranitrophenol and phosphate standard curves, respectively. […] Specific activity is expressed as nmoles paranitrophenol or free phosphate liberated mg^-1s^-1.

| Molecule | Relative Activity [%] |
| --- | --- |
| R-R-A-pS-V-A [Serine Phosphopeptide] | 0.0 |
| K-R-pT-I-R-R [Threonine Phosphopeptide] | 0.0 |
| T-S-T-E-P-Q-pY-Q-P-G-E-N-L [Tyrosine Phosphopeptide] | 20.0 |
| β-Casein: a 30 kDa protein containing 5 serine residues (protein, UniProt P02666 16-224, looked up) Beta-casein: RELEELNVPGEIVESLSSSEESITRINKKIEKFQSEEQQQTEDELQDKIHPFAQTQSLVYPFPGPIPNSLPQNIPPLTQTPVVVPPFLQPEVMGVSKVKEAMAPKHKEMPFPKYPVEPFTESQSLTLTDVENLHLPLPLLQSWMHQPHQPLPPTVMFPPQSVLSLSQSKVLPVPQKAVPYPQRDMPIQAFLLYQEPVLGPVRGPFPIIV | 1.2 |

Same assay, conditions: phosphate released relative to paranitrophenol released from PNPP x100; compound at 0.1 mM final concentration; listed as serine phosphopeptide

| Molecule | Relative Activity [%] |
| --- | --- |
| R-R-A-pS-V-A [Serine Phosphopeptide] | 0 |

Same assay, conditions: phosphate released relative to paranitrophenol released from PNPP x100; compound at 0.1 mM final concentration; listed as threonine phosphopeptide

| Molecule | Relative Activity [%] |
| --- | --- |
| K-R-pT-I-R-R [Threonine Phosphopeptide] | 0 |

Same assay, conditions: phosphate released relative to paranitrophenol released from PNPP x100; compound at 0.1 mM final concentration; listed as tyrosine phosphopeptide

| Molecule | Relative Activity [%] |
| --- | --- |
| T-S-T-E-P-Q-pY-Q-P-G-E-N-L [Tyrosine Phosphopeptide] | 20 |

Same assay, conditions: phosphate released relative to paranitrophenol released from PNPP x100; compound at 2.0 mM final concentration

| Molecule | Relative Activity [%] |
| --- | --- |
| O=C[C@@H](O)[C@@H](O)[C@H](O)[C@H](O)COP(=O)(O)O [Mannose-6-Phosphate] | 10.6 |
| NC(=O)c1ccc[n+]([C@@H]2O[C@H](COP(=O)([O-])OP(=O)(O)OC[C@H]3O[C@@H](n4cnc5c(N)ncnc54)[C@H](OP(=O)(O)O)[C@@H]3O)[C@@H](O)[C@H]2O)c1 [NADP^+] | 3.7 |
| Cc1cn([C@H]2C[C@H](O)[C@@H](COP(=O)(O)O)O2)c(=O)[nH]c1=O [TMP] | 27.3 |
| O=P(O)(O)O[C@H]1[C@H](OP(=O)(O)O)[C@@H](OP(=O)(O)O)[C@H](OP(=O)(O)O)[C@@H](OP(=O)(O)O)[C@H]1OP(=O)(O)O [Phytic acid] | 0.0 |
| O=c1[nH]cnc2c1ncn2[C@@H]1O[C@H](COP(=O)(O)OP(=O)(O)O)[C@@H](O)[C@H]1O [IDP] | 0.5 |
| O=C[C@H](O)[C@@H](O)[C@H](O)[C@H](O)COP(=O)(O)O [Glucose-6-Phosphate] | 2.7 |
| NC(=O)C1=CN([C@@H]2O[C@H](COP(=O)(O)OP(=O)(O)OC[C@H]3O[C@@H](n4cnc5c(N)ncnc54)[C@H](OP(=O)(O)O)[C@@H]3O)[C@@H](O)[C@H]2O)C=CC1 [NADPH] | 3.5 |
| C[N+](C)(C)CCOP(=O)(O)O [Phosphocholine] | 2.0 |
| O=P(O)(O)OC(CO)CO [β-Glycerol Phosphate] | 40.0 |
| C[C@@H](OP(=O)(O)O)[C@H](N)C(=O)O [Phospho-L-Threonine] | 4.5 |
| Nc1ncnc2c1ncn2[C@@H]1O[C@H](COP(=O)(O)OP(=O)(O)O)[C@@H](O)[C@H]1O [ADP] | 1.9 |
| Nc1ncnc2c1ncn2[C@@H]1O[C@H](COP(=O)(O)OP(=O)(O)OP(=O)(O)O)[C@@H](O)[C@H]1O [ATP] | 1.1 |
| Cc1ncc(C[n+]2csc(CCOP(=O)(O)O)c2C)c(N)n1 [Thiamine Monophosphate] | 12.3 |
| N[C@@H](COP(=O)(O)O)C(=O)O [Phospho-L-Serine] | 0.4 |
| N[C@@H](Cc1ccc(OP(=O)(O)O)cc1)C(=O)O [Phospho-L-Tyrosine] | 31.5 |
| Cc1cn([C@H]2C[C@H](O)[C@@H](COP(=O)(O)OP(=O)(O)O)O2)c(=O)[nH]c1=O [TDP] | 3.0 |
| NCCOP(=O)(O)O [Phosphoethanolamine] | 1.8 |
| Cc1ncc(C[n+]2csc(CCO[P@](=O)(O)OP(=O)(O)O)c2C)c(N)n1 [Thiamine Pyrophosphate] | 3.6 |
| O=P(O)(O)O[C@H]1O[C@H](CO)[C@H](O)[C@H](O)[C@H]1O [Galactose-1-Phosphate] | 0.0 |
| O=C(COP(=O)(O)O)[C@@H](O)[C@H](O)[C@H](O)COP(=O)(O)O [Fructose-1,6-bisphosphate] | 6.6 |
| C=C(OP(=O)(O)O)C(=O)O [PEP] | 7.6 |
| Nc1ccn([C@@H]2O[C@H](COP(=O)(O)O)[C@@H](O)[C@H]2O)c(=O)n1 [CMP] | 4.1 |
| O=c1ccn([C@@H]2O[C@H](COP(=O)(O)O)[C@@H](O)[C@H]2O)c(=O)[nH]1 [UMP] | 8.7 |
| Nc1ncnc2c1ncn2[C@@H]1O[C@H](CO)[C@@H](OP(=O)(O)O)[C@H]1O [3’-AMP] | 63.0 |
| O=P(O)(O)OC[C@H]1O[C@H](O[C@H]2O[C@H](CO)[C@@H](O)[C@H](O)[C@H]2O)[C@H](O)[C@@H](O)[C@@H]1O [Trehalose-6-Phosphate] | 4.0 |
| Nc1nc2c(ncn2[C@@H]2O[C@H](COP(=O)(O)OP(=O)(O)O)[C@@H](O)[C@H]2O)c(=O)[nH]1 [GDP] | 1.0 |
| O=c1ccn([C@@H]2O[C@H](COP(=O)(O)OP(=O)(O)O)[C@@H](O)[C@H]2O)c(=O)[nH]1 [UDP] | 1.8 |
| Cc1ncc(COP(=O)(O)O)c(C=O)c1O [Pyridoxal Phosphate] | 35.3 |
| Nc1ncnc2c1ncn2[C@@H]1O[C@H](COP(=O)(O)O)[C@@H](O)[C@H]1O [AMP] | 27.0 |
| O=C[C@H](O)[C@H](O)[C@H](O)COP(=O)(O)O [Ribose-5-Phosphate] | 20.0 |

Same assay, conditions: phosphate released relative to paranitrophenol released from PNPP x100; compound at 2.0 mM final concentration; listed as galactose-1-phosphate

| Molecule | Relative Activity |
| --- | --- |
| O=P(O)(O)O[C@H]1O[C@H](CO)[C@H](O)[C@H](O)[C@H]1O [Galactose-1-Phosphate] | not hydrolyzed |

Same assay, conditions: phosphate released relative to paranitrophenol released from PNPP x100; compound at 2.0 mM final concentration; listed as phytic acid

| Molecule | Relative Activity |
| --- | --- |
| O=P(O)(O)O[C@H]1[C@H](OP(=O)(O)O)[C@@H](OP(=O)(O)O)[C@H](OP(=O)(O)O)[C@@H](OP(=O)(O)O)[C@H]1OP(=O)(O)O [Phytic acid] | not hydrolyzed |

Target: T1, Acinetobacter baumannii rAcpA
Assay: rAcpA enzymatic kinetics with PNPP (Lineweaver-Burk)
Format: biochemical
Settings: PNPP 0.10–10.0 mM, 0.149 μg rAcpA, Lineweaver-Burk plot
Protocol: Unless indicated otherwise, reaction mixtures contained 2.0 mM PNPP (Sigma Chemical Co.) or phosphorylated compounds (Sigma Chemical Co.), 0.20 M MES (Sigma Chemical Co.) buffer, pH 6.0, 2.0 mM NiCl2, and 0.080–0.30 μg total Acinetobacter baumannii rAcpA protein, and were brought to a final concentration of 0.186 μg/μL protein with addition of bovine serum albumin (BSA, BioRad Laboratories) in a total reaction volume of 200 μL (determination of released phosphate) or 300 μL (determination of released paranitrophenol). All incubations were carried out for 30 minutes at 37 °C after which time reactions were placed in an ice slurry for 3 minutes followed by addition of enzyme to the respective blanks and reactions were terminated by heating at 65 °C for 10 minutes followed by immersion in an ice slurry for 3 minutes. Released phosphate was determined by addition of 1.0 mL BIOMOL GREEN phosphate reagent (Enzo Life Sciences), and monitored at 620 nm using a Genesys 10 UV Scanning Spectrophotometer (Thermo Scientific). Paranitrophenol was monitored at 405 nm following addition of 1.7 mL 0.5 M Glycine buffer, pH 10. Following subtraction of blank values, paranitrophenol and released phosphate were quantitated using paranitrophenol and phosphate standard curves, respectively. All reactions, i.e., generation of paranitrophenol and release of free phosphate were linear with both time (30 minutes) and assay protein (0.30 μg, ~ 13.2 nM). Specific activity is expressed as nmoles paranitrophenol or free phosphate liberated mg^-1s^-1.
The effect of increasing PNPP substrate on Acinetobacter baumannii rAcpA activity was determined.
Fig 4 Determination of Km and Vmax. Enzymatic activity (0.149 μg rAcpA) was determined over a broad range of PNPP concentrations (0.10–10.0 mM) in replicates of five for each substrate concentration tested and corresponding blank. Km and Vmax values were derived from standard Lineweaver-Burk plot analysis. Error bars represent 1 standard deviation from the mean.

| Molecule | Km [µM] | Vmax [pmol/s] |
| --- | --- | --- |
| O=[N+]([O-])c1ccc(OP(=O)(O)O)cc1 [PNPP] | 90 | 19.2 |

Same assay, conditions: calculated on the basis of 37 kDa

| Molecule | turnover number (kcat) [s⁻¹] |
| --- | --- |
| O=[N+]([O-])c1ccc(OP(=O)(O)O)cc1 [PNPP] | 4.80 |

Target: T1, Acinetobacter baumannii rAcpA
Assay: biochemical
Format: biochemical
Settings: not given

| Molecule | IC50 [µM] | Percent Control [%] | stimulation of PNPP hydrolysis | concentration inhibiting 50% [% v/v] | sensitivity of rAcpA to compound |
| --- | --- | --- | --- | --- | --- |
| O=P(O)(O)OP(=O)(O)O [Sodium Pyrophosphate] | 2500 |  |  |  |  |
| O=C(O)C(O)C(O)C(=O)O (centres unmarked) [Sodium Tartrate] | 2000 |  |  |  |  |
| Tween 20 |  | 140 | ~ 1.4 fold |  |  |
| O[C@@H](CS)[C@@H](O)CS [Dithiothreitol] | 3000 |  |  |  |  |
| Triton X100 |  |  |  | 0.32 |  |
| C=C1[C@@H](O)[C@@H]2O[C@]3(CC[C@H](/C=C/[C@@H](C)[C@@H]4CC(C)=C[C@@]5(O[C@H](C[C@@](C)(O)C(=O)O)CC[C@H]5O)O4)O3)CC[C@H]2O[C@@H]1[C@@H](O)C[C@H](C)[C@H]1O[C@@]2(CCCCO2)CC[C@H]1C [Okadaic acid] |  | 100 |  |  | insensitive; also recorded: did not inhibit |

Same assay, conditions: pH 6; read-out: IC50

| Molecule | IC50 [µM] |
| --- | --- |
| [O]=[Mo](=[O])([OH])[OH] [Molybdate] | 350 |
| CCCCCCCCCCCCOS(=O)(=O)[O-].[Na+] [Sodium Dodecyl Sulfate] | 100 |
| O=C(O)CN(CCN(CC(=O)O)CC(=O)O)CC(=O)O [EDTA] | 1250 |
| [F-].[Na+] [Sodium Fluoride] | 6000 |
| OCCS [β-Mercaptoethanol] | 10000 |
| O[C@H](CS)[C@@H](O)CS [Dithioerythritol] | 2000 |
| Triton X100 | 5100 |
| [Na+].[Na+].[Na+].[O]=[V]([O-])([O-])[O-] [Vanadate, sodium orthovanadate] | 125 |
| O=P(O)(O)O [Sodium Phosphate] | 9000 |

Same assay, conditions: read-out: IC50

| Molecule | IC50 [µM] |
| --- | --- |
| [O]=[Mo](=[O])([OH])[OH] [Molybdate] | 350 |
| CCCCCCCCCCCCOS(=O)(=O)[O-].[Na+] [Sodium Dodecyl Sulfate] | 100 |
| [Na+].[Na+].[Na+].[O]=[V]([O-])([O-])[O-] [Vanadate, sodium orthovanadate] | 125 |
